One test deals with Female CFLP mice. The test is described as follows: Hypoglycaemic activity: blood glucose after subcutaneous glucose load in fasted mice. It counts as in vivo. As to conditions: 24 h fasted female CFLP mice, glucose 1 g/Kg s.c. 30 min after dosing, 2 hour AUC versus water controls. As for the experimental part: Female CFLP mice, weighing approximately 25 g, were fasted for 24 hours prior to the study. The compounds under study were administered orally as an aqueous solution to each of 6 mice. 30 minutes later a blood sample (10 ul) was obtained from the tail for the analysis of blood glucose. Immediately after taking this blood sample, glucose (lg/Kg body weight) was administered subcutaneously to each mouse. 6 mice were given water as a control. Blood samples were then obtained from each mouse at 30 minute intervals for 120 minutes.
Compounds that produced a significant (P<0.05) reduction of blood glucose, compared with control mice given water, at any time interval, were considered active. The area under the blood glucose curve over the 2 hour period after the administration of the glucose was calculated for each compound and compared with the value for control animals.

The subject of a further test is right atrium. The test is described as follows: Cardiac activity: rate of the spontaneously beating isolated right atrium. Details: species or system Sprague-Dawley male rats. As to conditions: rat right atrium; for Emax: intrinsic activity: maximal effect relative to isoprenaline maximum (isoprenaline = 1), read-out: Rate i.a.; for pEC50: Krebs solution 32°C, concentration producing 50% of the compound's own maximum response. As for the experimental part:
(§1) Sprague-Dawley male rats (300-400 g) are killed and the right and left atria dissected out independently and mounted on a combined tissue holder/ electrode. The tissues are then immersed in a glass bath containing Krebs solution maintained at 32°C. The rate of the spontaneously beating right atrium (via an isometric transducer and a ratemeter) and the tension of the electrically paced left atrium (via an isometric transducer) are recorded on an Ml9 chart recorder.
(§2) After an initial stabilization period, the tissues are exposed to a maximal concentration of isoprenaline (10-^7M). The tissues are then washed several times until rate and tension return to baseline level. A dose-response curve to the test compound is then carried out.
(§3) Responses to each concentration of test compound are expressed as a percentage of the maximal responses to isoprenaline. Results are given in the form of (a) intrinsic activity (i.a.) (maximal effect of test compound with respect to isoprenaline maximum, i.e. isoprenaline intrinsic activity = 1) and (b) EC50 (the molar concentration at which the test compound produces 50% of its own maximum response).

The subject of the next test is left atrium. The test is described as follows: Cardiac activity: tension of the electrically paced isolated left atrium. The conditions noted are these: rat left atrium; for Emax: intrinsic activity: maximal effect relative to isoprenaline maximum (isoprenaline = 1), read-out: Tension i.a.; for pEC50: electrically paced, Krebs solution 32°C, concentration producing 50% of the compound's own maximum response. Details: species or system Sprague-Dawley male rats. The method, then: as §1, §2, §3

For the next test, the system named is genetically obese mice. The test is described as follows: Anti-obesity activity: carcass lipid after daily oral gavage for 28 days. As to conditions: carcass composition. The class given is in vivo. The method, then:
The compounds were administered by oral gavage in water or carboxymethyl-cellulose suspension to genetically obese mice daily for 28 days. At the end of the time the carcass composition was determined.

The mark [1] stands for this setting: 13.4 mg/kg p.o. daily for 28 days.

The structures appear in SMILES notation. pEC50: −log10 of the molar value. Where a name gives a salt, the structure may show the parent alone.

Consider `CC(Cc1ccc(OCCN2CCN(Cc3ccccc3)CC2)cc1)NCC(O)c1cccc(C(F)(F)F)c1` (centres unmarked) [Example 1, N-[2-(4-(2-(1-(4-Benzyl)piperazinyl)ethoxy)henyl)-1-methylethyl]-2-hydroxy-2-(3-trifluoromethylphenyl)ethanamine trihydrochloride], for which the “% Reduction in area under Blood Glucose Curve” value (shortened to “% Reduction in area”) with Female CFLP mice (2.5 μmol/Kg orally) worked out at 38%. Further, the Emax in the test on right atrium and in the test on left atrium was 0% each time.

Turning to `CC(Cc1ccc(OCCN2CCN(c3ccccc3)CC2)cc1)NCC(O)c1cccc(C(F)(F)F)c1` (centres unmarked) [Example 2, N-[2-(4-(2-(1-(4-Phenyl)piperazinyl)ethoxy)phenyl)-1-methylethyl]-2-hydroxy-2-(3-trifluoromethylphenyl)ethan-amine trihydrobromide], the “% Reduction in area” value with Female CFLP mice (2.5 μmol/Kg orally) is 64%. For the same compound, the Emax with left atrium worked out at 0%.

As for `Br.Br.Br.CC(Cc1ccc(OCCN2CCNCC2)cc1)NCC(O)c1cccc(C(F)(F)F)c1` (centres unmarked) [Example 3, N-[2-(4-(2-(1-Piperazinyl)ethoxy)phenyl)-1-methylethyl]-2-hydroxy-2-(3-trifluoromethylphenyl)ethanamine trihydrobromide], the “% Reduction in area” value in the test on Female CFLP mice (2.5 μmol/Kg orally) is 20%.

Take `CC(Cc1ccc(OCCN2CCN(c3ccccc3)CC2)cc1)NCC(O)c1ccccc1` (centres unmarked) [Example 5, N-[2-(4-(2-(1-(4-Phenyl)piperazinyl)ethoxy)phenyl)-1-methylethyl]-2-hydroxy-2-phenylethanamine trihydrochloride]: the Emax was determined as 42% with right atrium and 67% in the test on left atrium. The pEC50 (usually the negative decadic logarithm of the EC50, by convention in mol/L) in the test on right atrium was 6.27; in the test on left atrium it was 4.92.

Consider `CC(Cc1ccc(OCCN2CCN(c3ccccc3)CC2)cc1)NCC(O)c1ccccc1F` (centres unmarked) [Example 6, N-[2-(4-(2-(1-(4-Phenyl)piperazinyl)ethox)phenyl)-1-methylethyl]-2-hydroxy-2-(2-fluorophenyl)ethanamine trihydrochloride], for which, in the test on right atrium, the Emax is 44% and the negative logarithm of the EC50 (pEC50) is 6.46. Also, in the test with left atrium, the Emax was 28% and the pEC50 was 4.85.

For the compound `CC(Cc1ccc(OCCN2CCN(c3ccccc3)CC2)cc1)NCC(O)c1cccc(Cl)c1F` (centres unmarked) [Example 7, N-[2-(4-(2-(1-(4-Phenyl)piperazinyl)ethoxy)phenyl)-1-methylethyl]-2-hydroxy-2-(2-fluoro-3-chlorophenyl)ethanamine trihydrochloride], the figures for the Emax in the test with right atrium and in the test on left atrium were 35% and 0%, respectively. The compound further gave a pEC50 with right atrium of 6.77.

With `CC(Cc1ccc(OCCN2CCN(c3cccc(Cl)c3)CC2)cc1)NCC(O)c1cccc(C(F)(F)F)c1` (centres unmarked) [Example 8, N-[2-(4-(2-(1-(4-(3-Chlorophenyl))piperazinyl)ethoxy)-phenyl)-1-methylethyl]-2-hydroxy-2-(3-trifluoromethylphenyl)ethanamine trihydrochloride], the “g LIPID/MOUSE TREATED” value with genetically obese mice (setting [1]) is given as 18.06 g.

As to `CC(Cc1ccc(OCCN2CCN(c3ccc(Cl)cc3)CC2)cc1)NCC(O)c1cccc(C(F)(F)F)c1` (centres unmarked) [Example 10, N-[2-(4-(2-(1-(4-(4-Chlorophenyl))piperazinyl)ethoxy)-phenyl)-1-methylethyl]-2-hydroxy-2-(3-trifluoromethylphenyl)ethanamine trihydrochloride], in the test on right atrium, the Emax turned out to be 86% and the pEC50 is 4.70. In addition, in the test with left atrium, the Emax stood at 100% and the pEC50 is 4.57.

In the case of `CC(Cc1ccc(OCCN2CCN(c3cccc(C(F)(F)F)c3)CC2)cc1)NCC(O)c1cccc(Cl)c1` (centres unmarked) [Example 13, N-[2-(4-(2-(1-(4-(3-Trifluoromethylphenyl))piperazinyl)-ethoxy)phenyl)-1-methylethyl]-2-hydroxy-2-(3-chlorophenyl) ethanamine trihydrochloride], the “g LIPID/MOUSE TREATED” value with genetically obese mice (setting [1]) came out at 16.40 g. In addition, in the test on right atrium, the Emax stood at 7% and the pEC50 is 7.46. Moreover, in the test on left atrium, the Emax was found to be 33% and the pEC50 was 4.35.

As for `CC(Cc1ccc(OCCN2CCN(C)CC2)cc1)NCC(O)c1cccc(C(F)(F)F)c1` (centres unmarked) [Example 14, N-[2-(4-(2-(1-(4-Methyl)piperazinyl)ethoxy)henyl)-1-methylethyl]-2-hydroxy-2-(3-trifluoromethylphenyl) ethanamine trihydrochloride, monohydrate], the “g LIPID/MOUSE TREATED” value in the test on genetically obese mice (11.9 mg/kg p.o. daily for 28 days) amounted to 18.26 g. In the test with right atrium, the Emax amounted to 4% and the pEC50 was 5.77. Also, the Emax in the test with left atrium is 0%.

Consider `COC(CNC(C)Cc1ccc(OCCN2CCN(c3ccccc3)CC2)cc1)c1cccc(Cl)c1` (centres unmarked) [Example 15, N-[2-(4-(2-(1-(4-Phenyl)piperazinyl)ethoxy)phenyl)-1-methylethyl]-2-methoxy-2-(3-chlorophenyl)ethanamine trihydrochloride], for which, in the test on Female CFLP mice (12.5 μmol/Kg orally), the “% Reduction in area” value turned out to be 47%.

The values are drawn from EP0102213A1, “Ethanolamine derivatives, pharmaceutical compositions containing them, and processes for preparing them” (BEECHAM GROUP PLC, priority 1982, dated 1984).
